Measurements taken from ChEMBL document CHEMBL1201862, “PubChem BioAssay data set” (2004).
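Growth conditions: 96-well plates. Treatment: test compound, 48 hours, 5 concentrations. Analysis: linear interpolation between bracketing concentrations; unreached endpoints set to highest concentration. GI50 marks 50% less growth.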 The source made the active and inactive calls. Rule as the data show it: active = GI50 up to about 1.1 µM and inactive = higher.

What was measured:
Assay in all cases: inhibition of tumour cell growth, NCI panel, 48 h
[1] = test system: 786-0
[2] = test system: CCRF-CEM
[3] = test system: COLO 205
[4] = test system: EKVX
[5] = test system: HOP-62
[6] = test system: HT-29
[7] = test system: K562
[8] = test system: LOX IMVI
[9] = test system: MDA-N
[10] = test system: NCI-H226
[11] = test system: NCI-H522
[12] = test system: NCI/ADR-RES
[13] = test system: RXF 393
[14] = test system: SF-268
[15] = test system: SF-539
[16] = test system: SK-MEL-28
[17] = test system: SN12C
[18] = test system: SR
[19] = test system: SW-620
[20] = test system: HCC 2998

Measured: GI50

CC(C)(C)c1cc(C(=O)C2Cc3ccccc3C(=O)O2)cc(C(C)(C)C)c1O (configuration not stated)
inactive: [1] 12.3 µM | [2] 5.01 µM | [3] 17.6 µM | [4] 12.3 µM | [5] 13.7 µM | [6] 14.4 µM | [7] 11.4 µM | [8] 11.9 µM | [9] 8.61 µM | [10] 17.9 µM | [11] 11.6 µM | [12] 13 µM | [13] 12.1 µM | [14] 14.5 µM | [15] 14.2 µM | [16] 15.8 µM | [17] 11.5 µM | [18] 3.59 µM | [19] 10.3 µM

CC(C)CNc1nc(N)nc(O)c1NC=O
inactive: [1] > 100 µM | [2] > 100 µM | [3] > 100 µM | [4] > 100 µM | [20] > 100 µM | [5] > 100 µM | [6] > 100 µM | [7] > 100 µM | [8] > 100 µM | [9] > 100 µM | [10] > 100 µM | [11] > 100 µM | [12] > 100 µM | [13] > 100 µM | [14] > 100 µM | [15] > 100 µM | [16] > 100 µM | [17] > 100 µM | [19] > 100 µM

COC(=O)/C=C(\C)C(=O)N(C)c1ccccc1I
inactive: [1] > 100 µM | [2] > 100 µM | [3] > 100 µM | [4] > 100 µM | [20] > 100 µM | [5] > 100 µM | [7] > 100 µM | [8] > 100 µM | [9] > 100 µM | [10] > 100 µM | [12] > 100 µM | [13] > 100 µM | [14] > 100 µM | [16] > 100 µM | [17] > 100 µM | [18] 94 µM | [19] > 100 µM

O=C1C(/C=N/CCc2c[nH]c3ccccc23)C(C(F)(F)F)=NN1c1nc2ccccc2s1 (configuration not stated)
inactive: [1] 39.2 µM | [2] 19.5 µM | [3] 17.7 µM | [4] 23.1 µM | [5] 20.4 µM | [6] 27.5 µM | [7] 29.2 µM | [8] 27.9 µM | [9] 32.8 µM | [10] 26.4 µM | [11] 19.5 µM | [12] 26.7 µM | [13] 15 µM | [14] 50.5 µM | [15] 31.1 µM | [16] 33.3 µM | [17] 37.6 µM | [18] 31.6 µM | [19] 38.9 µM

COC(=O)[C@@H]1CN(C(C)=O)C(=O)N1
inactive: [1] > 100 µM | [2] > 100 µM | [3] > 100 µM | [4] > 100 µM | [20] > 100 µM | [5] > 100 µM | [6] > 100 µM | [7] > 100 µM | [8] > 100 µM | [9] > 100 µM | [10] > 100 µM | [11] > 100 µM | [12] > 100 µM | [13] > 100 µM | [14] > 100 µM | [15] > 100 µM | [16] > 100 µM | [17] > 100 µM | [19] > 100 µM

CCOC(=O)[C@@H]1OC(c2ccccc2)O[C@H]1C(=O)OCC
inactive: [1] > 100 µM | [2] > 100 µM | [3] > 100 µM | [4] > 100 µM | [5] > 100 µM | [6] > 100 µM | [7] > 100 µM | [8] > 100 µM | [9] > 100 µM | [10] > 100 µM | [12] > 100 µM | [14] > 100 µM | [16] > 100 µM | [17] > 100 µM | [18] > 100 µM | [19] > 100 µM

CSc1nc(Nc2ccccc2Cl)c2c(N)nn(C)c2n1
inactive: [1] 82 µM | [2] > 100 µM | [3] > 100 µM | [4] 24.4 µM | [20] > 100 µM | [5] 27 µM | [6] > 100 µM | [7] > 100 µM | [8] 16 µM | [9] > 100 µM | [10] > 100 µM | [11] 75.2 µM | [12] 69.5 µM | [13] 47.2 µM | [14] 77.8 µM | [16] > 100 µM | [17] > 100 µM | [19] > 100 µM
